Experimental data reported in US8546588B2, “Substituted hydroxamic acids and uses thereof” (Millennium Pharmaceuticals, Inc., priority 2010, dated 2013).

Target: T1, purified human HDAC6 (Homo sapiens, UniProt Q9UBN7)
T1 construct: purchased BPS Bioscience 5006
T1 sequence (Q9UBN7 1-1215): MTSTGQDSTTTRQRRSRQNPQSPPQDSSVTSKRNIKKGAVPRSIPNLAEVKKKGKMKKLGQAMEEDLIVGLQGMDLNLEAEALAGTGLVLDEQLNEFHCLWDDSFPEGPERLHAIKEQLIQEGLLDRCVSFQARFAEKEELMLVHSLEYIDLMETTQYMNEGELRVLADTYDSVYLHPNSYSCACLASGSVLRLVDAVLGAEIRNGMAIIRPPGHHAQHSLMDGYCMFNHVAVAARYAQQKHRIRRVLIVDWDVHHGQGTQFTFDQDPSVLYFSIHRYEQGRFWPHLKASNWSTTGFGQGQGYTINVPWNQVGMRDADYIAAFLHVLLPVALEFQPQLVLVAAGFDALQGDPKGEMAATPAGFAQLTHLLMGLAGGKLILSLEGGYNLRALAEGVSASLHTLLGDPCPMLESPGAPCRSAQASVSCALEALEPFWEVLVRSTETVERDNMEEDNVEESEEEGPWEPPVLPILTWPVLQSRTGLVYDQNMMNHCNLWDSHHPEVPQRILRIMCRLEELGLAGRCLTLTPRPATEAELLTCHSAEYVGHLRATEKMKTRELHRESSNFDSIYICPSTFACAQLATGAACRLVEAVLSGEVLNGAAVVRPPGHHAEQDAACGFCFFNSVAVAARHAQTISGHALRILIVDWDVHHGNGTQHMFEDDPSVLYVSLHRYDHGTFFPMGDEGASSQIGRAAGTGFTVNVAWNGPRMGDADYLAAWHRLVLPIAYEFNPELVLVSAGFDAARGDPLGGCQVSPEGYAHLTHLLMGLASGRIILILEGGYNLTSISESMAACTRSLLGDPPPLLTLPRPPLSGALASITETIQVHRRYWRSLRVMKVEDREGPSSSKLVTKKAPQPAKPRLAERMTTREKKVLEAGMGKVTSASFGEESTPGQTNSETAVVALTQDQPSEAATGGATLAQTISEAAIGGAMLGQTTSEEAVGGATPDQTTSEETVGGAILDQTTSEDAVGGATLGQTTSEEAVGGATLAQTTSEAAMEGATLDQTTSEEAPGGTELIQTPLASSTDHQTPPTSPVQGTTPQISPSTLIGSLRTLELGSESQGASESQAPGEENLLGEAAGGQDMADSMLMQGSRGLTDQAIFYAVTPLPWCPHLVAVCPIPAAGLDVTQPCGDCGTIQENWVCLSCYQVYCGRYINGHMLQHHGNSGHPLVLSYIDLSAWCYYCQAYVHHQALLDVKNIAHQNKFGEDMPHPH
Assay: HDAC6 Enzyme Assay
Type: biochemical
Settings: substrate Ac-Arg-Gly-Lys(Ac)-AMC peptide, 1 hour at 30° C.
Method: To measure the inhibition of HDAC6 activity, purified human HDAC6 (BPS Bioscience; Cat. No. 5006) is incubated with substrate Ac-Arg-Gly-Lys(Ac)-AMC peptide (Bachem Biosciences; Cat. No. I-1925) for 1 hour at 30° C. in the presence of test compounds or vehicle DMSO control. The reaction is stopped with the HDAC inhibitor trichostatin A (Sigma; Cat. No. T8552) and the amount of Arg-Gly-Lys-AMC generated is quantitated by digestion with trypsin (Sigma; Cat. No. T1426) and subsequent measurement of the amount of AMC released using a fluorescent plate reader (Pherastar; BMG Technologies) set at Ex 340 nm and Em 460 nm. Concentration response curves are generated by calculating the fluorescence increase in test compound-treated samples relative to DMSO-treated controls, and enzyme inhibition (IC50) values are determined from those curves.

C[C@@H](NS(=O)(=O)c1ccc(C(F)(F)F)cc1)c1ccc(C(=O)NO)s1 [Compound I-23, N-hydroxy-5-[(1R)-1-({[4-(trifluoromethyl)phenyl]sulfonyl}amino)ethyl]thiophene-2-carboxamide]
IC50: 100 to 500 nM

CC(NC(=O)c1cc2ccccc2n1C)c1ncc(C(=O)NO)s1 (stereo not drawn) [Compound I-51, N-(1-{5-[(hydroxyamino)carbonyl]-1,3-thiazol-2-yl}ethyl)-1-methyl-1H-indole-2-carboxamide]
IC50: < 100 nM

C[C@@H](NC(=O)c1cc2ccccc2o1)c1cc(C(=O)NO)on1 [Compound I-181, (R)-3-(1-(benzofuran-2-carboxamido)ethyl)-N-hydroxyisoxazole-5-carboxamide]
IC50: > 500 nM

C[C@H](NC(=O)c1ccc(-c2ccccc2)cc1)c1ncc(C(=O)NO)s1 [Compound I-161, 2-{(1S)-1-[(biphenyl-4-ylcarbonyl)amino]ethyl}-N-hydroxy-1,3-thiazole-5-carboxamide]
IC50: < 100 nM

C[C@H](NC(=O)c1cc2ccccc2o1)c1ncc(C(=O)NO)s1 [Compound I-159, 2-{(1S)-1-[(1-benzofuran-2-ylcarbonyl)amino]ethyl}-N-hydroxy-1,3-thiazole-5-carboxamide]
IC50: < 100 nM

CC(NS(=O)(=O)c1ccccc1)c1ccc(C(=O)NO)s1 (stereo not drawn) [Compound I-48, N-hydroxy-5-{1-[(phenylsulfonyl)amino]ethyl}thiophene-2-carboxamide]
IC50: 100 to 500 nM

CC(NC(=O)Nc1ccccc1)c1ccc(C(=O)NO)s1 (stereo not drawn) [Compound I-12, 5-{1-[(anilinocarbonyl)amino]ethyl}-N-hydroxythiophene-2-carboxamide]
IC50: < 100 nM

CC(NC(=O)NC(C)c1ccc(C(=O)NO)s1)c1ccccc1 (stereo not drawn) [Compound I-28, N-hydroxy-5-[1-({[(1-phenylethyl)amino]carbonyl}amino)ethyl]thiophene-2-carboxamide]
IC50: 100 to 500 nM

Cc1ccccc1NC(=O)NC(C)c1ccc(C(=O)NO)s1 (stereo not drawn) [Compound I-40, N-hydroxy-5-[1-({[(2-methylphenyl)amino]carbonyl}amino)ethyl]thiophene-2-carboxamide]
IC50: < 100 nM

COc1ccc(C(=O)N[C@@H](C)c2ncc(C(=O)NO)s2)cc1 [Compound I-175, N-hydroxy-2-{(1S)-1-[(4-methoxybenzoyl)amino]ethyl}-1,3-thiazole-5-carboxamide]
IC50: 100 to 500 nM

C[C@@H](NC(=O)c1cc2ccccc2s1)c1ncc(C(=O)NO)s1 [Compound I-178, 2-{(1R)-1-[(1-benzothien-2-ylcarbonyl)amino]ethyl}-N-hydroxy-1,3-thiazole-5-carboxamide]
IC50: < 100 nM

CC(NC(=O)NC1CCCC1)c1ccc(C(=O)NO)s1 (stereo not drawn) [Compound I-1, 5-(1-(3-cyclopentylureido)ethyl)-N-hydroxythiophene-2-carboxamide]
IC50: < 100 nM

Cc1nc(-c2ccccn2)sc1C(=O)N[C@H](C)c1ncc(C(=O)NO)s1 [Compound I-167, N-((1R)-1-{5-[(hydroxyamino)carbonyl]-1,3-thiazol-2-yl}ethyl)-4-methyl-2-pyridin-2-yl-1,3-thiazole-5-carboxamide]
IC50: < 100 nM

C[C@@H](NC(=O)C1(C)CCCCC1)c1ccc(C(=O)NO)s1 [Compound I-43, N-hydroxy-5-((1R)-1-{[(1-methylcyclohexyl)carbonyl]amino}ethyl)thiophene-2-carboxamide]
IC50: > 500 nM

COc1ccc(C(=O)N[C@H](C)c2ncc(C(=O)NO)s2)cc1 [Compound I-169, N-hydroxy-2-{(1R)-1-[(4-methoxybenzoyl)amino]ethyl}-1,3-thiazole-5-carboxamide]
IC50: 100 to 500 nM

Cc1ccccc1S(=O)(=O)NC(C)c1ccc(C(=O)NO)s1 (stereo not drawn) [Compound I-35, N-hydroxy-5-(1-{[(2-methylphenyl)sulfonyl]amino}ethyl)thiophene-2-carboxamide]
IC50: 100 to 500 nM

CC(NC(=O)Nc1cccc(C(F)(F)F)c1)c1ccc(C(=O)NO)s1 (stereo not drawn) [Compound I-3, N-hydroxy-5-{1-[({[3-(trifluoromethyl)phenyl]amino}carbonyl)amino]ethyl}thiophene-2-carboxamide]
IC50: < 100 nM

C[C@@H](NC(=O)NC(C)(C)C)c1ccc(C(=O)NO)s1 [Compound I-8, 5-((1R)-1-{[(tert-butylamino)carbonyl]amino}ethyl)-N-hydroxythiophene-2-carboxamide]
IC50: 100 to 500 nM

CC(NC(=O)Nc1ccc(Oc2ccccc2)cc1)c1ccc(C(=O)NO)s1 (stereo not drawn) [Compound I-14, N-hydroxy-5-[1-({[(4-phenoxyphenyl)amino]carbonyl}amino)ethyl]thiophene-2-carboxamide]
IC50: < 100 nM

Cc1ccc(NC(=O)NC(C)c2ccc(C(=O)NO)s2)c(C)c1 (stereo not drawn) [Compound I-13, 5-[1-({[(2,4-dimethylphenyl)amino]carbonyl}amino)ethyl]-N-hydroxythiophene-2-carboxamide]
IC50: < 100 nM

C[C@H](NC(=O)c1cccn1C)c1ncc(C(=O)NO)s1 [Compound I-160, N-hydroxy-2-((1S)-1-{[(1-methyl-1H-pyrrol-2-yl)carbonyl]amino}ethyl)-1,3-thiazole-5-carboxamide]
IC50: 100 to 500 nM

C[C@H](NC(=O)C12CC3CC(CC(C3)C1)C2)c1ncc(C(=O)NO)s1 [Compound I-179, 2-((1S)-1-{[1-adamantylcarbonyl]amino}ethyl)-N-hydroxy-1,3-thiazole-5-carboxamide]
IC50: > 500 nM

C[C@H](NC(=O)c1nc2ccccc2n1C)c1ncc(C(=O)NO)s1 [Compound I-173, N-((1S)-1-{5-[(hydroxyamino)carbonyl]-1,3-thiazol-2-yl}ethyl)-1-methyl-1H-benzimidazole-2-carboxamide]
IC50: < 100 nM

C[C@@H](NC(=O)c1cc2ccccc2s1)c1cc(C(=O)NO)on1 [Compound I-176, 3-{(1R)-1-[(1-benzothien-2-ylcarbonyl)amino]ethyl}-N-hydroxyisoxazole-5-carboxamide]
IC50: > 500 nM

CC(NC(=O)Nc1cc(Cl)cc(Cl)c1)c1ccc(C(=O)NO)s1 (stereo not drawn) [Compound I-4, 5-[1-({[(3,5-dichlorophenyl)amino]carbonyl}amino)ethyl]-N-hydroxythiophene-2-carboxamide]
IC50: 100 to 500 nM

CC(NC(=O)c1cc2ccccc2s1)c1ncc(C(=O)NO)s1 (stereo not drawn) [Compound I-54, 2-{1-[(1-benzothien-2-ylcarbonyl)amino]ethyl}-N-hydroxy-1,3-thiazole-5-carboxamide]
IC50: < 100 nM

CC(NC(=O)Nc1ccc(C(F)(F)F)cc1)c1ccc(C(=O)NO)s1 (stereo not drawn) [Compound I-45, N-hydroxy-5-{1-[({[4-(trifluoromethyl)phenyl]amino}carbonyl)amino]ethyl}thiophene-2-carboxamide]
IC50: < 100 nM

CC(NC(=O)Nc1ccc(OC(F)(F)F)cc1)c1ccc(C(=O)NO)s1 (stereo not drawn) [Compound I-22, N-hydroxy-5-{1-[({[4-(trifluoromethoxy)phenyl]amino}carbonyl)amino]ethyl}thiophene-2-carboxamide]
IC50: < 100 nM

CC(NC(=O)Nc1ccc(F)cc1)c1ccc(C(=O)NO)s1 (stereo not drawn) [Compound I-2, 5-[1-({[(4-fluorophenyl)amino]carbonyl}amino)ethyl]-N-hydroxythiophene-2-carboxamide]
IC50: < 100 nM

C[C@@H](NC(=O)C(C)(C)C)c1ncc(C(=O)NO)s1 [Compound I-166, 2-{(1R)-1-[(2,2-dimethylpropanoyl)amino]ethyl}-N-hydroxy-1,3-thiazole-5-carboxamide]
IC50: > 500 nM
